In PubChem BioAssay (NCI):
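Results reflect a 48-hour exposure of cells in 96-well plates to compound at five concentrations. Definition used: TGI = concentration required for complete inhibition of growth.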

Key:
Assay in all cases: growth of human tumour cells (NCI), 48 h
SNB-19 CNS = system: SNB-19 CNS
HT29 colon = system: HT29 colon
RXF 393 renal = system: RXF 393 renal
NCI-H460 lung = system: NCI-H460 lung
MCF7 breast = system: MCF7 breast
ACHN renal = system: ACHN renal
A549 NSCLC = system: A549 NSCLC
MDA-MB-435 = system: MDA-MB-435
SK-MEL-5 melanoma = system: SK-MEL-5 melanoma
UO-31 renal = system: UO-31 renal
HS 578T breast = system: HS 578T breast
OVCAR-4 ovarian = system: OVCAR-4 ovarian
UACC-62 melanoma = system: UACC-62 melanoma
IGROV1 ovarian = system: IGROV1 ovarian
CAKI-1 renal = system: CAKI-1 renal
NCI-H23 lung = system: NCI-H23 lung
MDA-MB-231 breast = system: MDA-MB-231 breast
K-562 leukemia = system: K-562 leukemia
U251 CNS = system: U251 CNS
BT-549 breast = system: BT-549 breast
COLO 205 colon = system: COLO 205 colon
KM12 colon = system: KM12 colon
HCT-116 colon = system: HCT-116 colon
SW-620 colon = system: SW-620 colon
OVCAR-5 ovarian = system: OVCAR-5 ovarian
T-47D breast = system: T-47D breast
PC-3 prostate = system: PC-3 prostate
LOX IMVI melanoma = system: LOX IMVI melanoma
HOP-92 NSCLC = system: HOP-92 NSCLC
NCI/ADR-RES ovarian = system: NCI/ADR-RES ovarian
MOLT-4 leukemia = system: MOLT-4 leukemia
CCRF-CEM leukemia = system: CCRF-CEM leukemia
NCI-H522 lung = system: NCI-H522 lung
SF-539 CNS = system: SF-539 CNS
786-0 renal = system: 786-0 renal
SR leukemia = system: SR leukemia
UACC-257 melanoma = system: UACC-257 melanoma
OVCAR-8 ovarian = system: OVCAR-8 ovarian
SF-268 CNS = system: SF-268 CNS
HOP-62 NSCLC = system: HOP-62 NSCLC
TK-10 renal = system: TK-10 renal
SF-295 CNS = system: SF-295 CNS
M14 melanoma = system: M14 melanoma
HCT-15 colon = system: HCT-15 colon
EKVX NSCLC = system: EKVX NSCLC
NCI-H226 lung = system: NCI-H226 lung
MALME-3M melanoma = system: MALME-3M melanoma
RPMI-8226 leukemia = system: RPMI-8226 leukemia
OVCAR-3 ovarian = system: OVCAR-3 ovarian
A498 renal = system: A498 renal
SNB-75 CNS = system: SNB-75 CNS
SK-OV-3 ovarian = system: SK-OV-3 ovarian
SK-MEL-2 melanoma = system: SK-MEL-2 melanoma

Measured: TGI

O=C1CCCn2c(nc3ccccc32)N1
> 100 µM: SNB-19 CNS | HT29 colon | RXF 393 renal | NCI-H460 lung | MCF7 breast | ACHN renal | A549 NSCLC | MDA-MB-435 | SK-MEL-5 melanoma | UO-31 renal | HS 578T breast | OVCAR-4 ovarian | UACC-62 melanoma | IGROV1 ovarian | CAKI-1 renal | NCI-H23 lung | MDA-MB-231 breast | K-562 leukemia | U251 CNS | BT-549 breast | COLO 205 colon | KM12 colon | HCT-116 colon | SW-620 colon | OVCAR-5 ovarian | T-47D breast | PC-3 prostate | LOX IMVI melanoma | HOP-92 NSCLC | NCI/ADR-RES ovarian | MOLT-4 leukemia | CCRF-CEM leukemia | NCI-H522 lung | SF-539 CNS | 786-0 renal | SR leukemia | UACC-257 melanoma | OVCAR-8 ovarian | SF-268 CNS | HOP-62 NSCLC | TK-10 renal | SF-295 CNS | M14 melanoma | HCT-15 colon | EKVX NSCLC | NCI-H226 lung | MALME-3M melanoma | RPMI-8226 leukemia | OVCAR-3 ovarian | A498 renal | SNB-75 CNS | SK-OV-3 ovarian | SK-MEL-2 melanoma
